Experimental data: patent publication US20100273814A1, “((PHENYL)IMIDAZOLYL)METHYLHETEROARYL COMPOUNDS” (priority 2007, published 2010)

What was measured:
Type in all cases: cell-based
alpha2A receptor = biological target: T1, alpha2A receptor (Homo sapiens, UniProt P08913); test: Receptor Selection and Amplification Technology (RSAT) assay, alpha2A; conditions: RSAT; for EC50: transfected NIH-3T3 cells, value outside brackets, read-out: Alpha 2A EC50 (potency); for Alpha 2A intrinsic activity (efficacy): ratio of maximal effect to that of standard full agonist brimonidine (UK14304), value in brackets
T1 construct: expressed in transfected cells; host or cells: NIH-3T3 cells
T1 sequence (P08913 1-465): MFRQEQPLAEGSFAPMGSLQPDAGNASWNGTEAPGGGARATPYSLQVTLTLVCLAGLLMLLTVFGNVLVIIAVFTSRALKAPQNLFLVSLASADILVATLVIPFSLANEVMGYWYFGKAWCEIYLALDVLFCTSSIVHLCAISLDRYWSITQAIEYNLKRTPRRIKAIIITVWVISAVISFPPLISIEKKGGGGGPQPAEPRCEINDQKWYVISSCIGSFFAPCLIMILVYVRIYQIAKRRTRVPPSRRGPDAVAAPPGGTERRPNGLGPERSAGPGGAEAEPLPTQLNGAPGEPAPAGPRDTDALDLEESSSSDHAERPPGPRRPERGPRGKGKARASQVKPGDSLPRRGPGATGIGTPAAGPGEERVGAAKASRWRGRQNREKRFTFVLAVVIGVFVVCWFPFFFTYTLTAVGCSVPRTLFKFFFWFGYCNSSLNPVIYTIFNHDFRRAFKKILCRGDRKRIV
Experimental: (§1) Receptor Selection and Amplification Technology (RSAT) Assay
(§2) The RSAT assay measures a receptor-mediated loss of contact inhibition that results in selective proliferation of receptor-containing cells in a mixed population of confluent cells. The increase in cell number is assessed with an appropriate transfected marker gene such as β-galactosidase, the activity of which can be easily measured in a 96-well format. Receptors that activate the G protein, Gq, elicit this response. Alpha2 receptors, which normally couple to Gi, activate the RSAT response when coexpressed with a hybrid Gq protein that has a Gi receptor recognition domain, called Gq/i5.
(§3) NIH-3T3 cells are plated at a density of 2×10^6 cells in 15 cm dishes and maintained in Dulbecco's modified Eagle's medium supplemented with 10% calf serum. One day later, cells are cotransfected by calcium phosphate precipitation with mammalian expression plasmids encoding p-SV-β-galactosidase (5-10 μg), receptor (1-2 μg) and G protein (1-2 μg). 40 μg salmon sperm DNA may also be included in the transfection mixture. Fresh media is added on the following day and 1-2 days later, cells are harvested and frozen in 50 assay aliquots. Cells are thawed and […] added to 100 aliquots of various concentrations of drugs in triplicate in 96-well dishes. Incubations continue 72-96 hr at 37° C. After washing with phosphate-buffered saline, β-galactosidase enzyme activity is determined by adding 200 μl of the chromogenic substrate (consisting of 3.5 mM o-nitrophenyl-β-D-galactopyranoside and 0.5% nonidet P-40 in phosphate buffered saline), incubating overnight at 30° C. and measuring optical density at 420 nm. The absorbance is a measure of enzyme activity, which depends on cell number and reflects a receptor-mediated cell proliferation. The efficacy or intrinsic activity is calculated as a ratio of the maximal effect of the drug to the maximal effect of a standard full agonist for each receptor subtype. Brimonidine, also called UK14304, the chemical structure of which is shown below, is used as the standard agonist for the alpha2A, alpha2B and alpha2C receptors. The EC50 is the concentration at which the drug effect is half of its maximal effect.
(§4) EC50 values are nanomolar. ND stands for “not determinable” at concentrations less than 10 micromolar. IA stands for “intrinsic activity.”

alpha2B receptor = biological target: T2, alpha2B receptor (Homo sapiens, UniProt P18089); test: Receptor Selection and Amplification Technology (RSAT) assay, alpha2B; conditions: RSAT; for EC50: transfected NIH-3T3 cells, value outside brackets, read-out: Alpha 2B EC50 (potency); for Alpha 2B intrinsic activity (efficacy): ratio of maximal effect to that of standard full agonist brimonidine (UK14304), value in brackets
T2 construct: expressed in transfected cells; host or cells: NIH-3T3 cells
T2 sequence (P18089 1-450): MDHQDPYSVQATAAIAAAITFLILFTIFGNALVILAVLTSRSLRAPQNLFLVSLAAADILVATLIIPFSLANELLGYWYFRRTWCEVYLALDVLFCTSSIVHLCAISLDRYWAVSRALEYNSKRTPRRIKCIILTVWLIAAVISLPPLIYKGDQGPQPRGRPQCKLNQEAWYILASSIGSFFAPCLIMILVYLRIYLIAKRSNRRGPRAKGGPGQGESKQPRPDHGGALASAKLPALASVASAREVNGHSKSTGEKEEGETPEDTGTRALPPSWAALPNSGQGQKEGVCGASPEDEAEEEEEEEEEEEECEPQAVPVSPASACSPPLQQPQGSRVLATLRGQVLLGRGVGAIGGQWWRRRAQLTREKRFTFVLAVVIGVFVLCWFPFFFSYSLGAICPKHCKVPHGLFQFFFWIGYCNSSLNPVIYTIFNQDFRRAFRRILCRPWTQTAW
Experimental: as §1, §2, §3, §4

alpha2C receptor = biological target: T3, alpha2C receptor (Homo sapiens, UniProt P18825); test: Receptor Selection and Amplification Technology (RSAT) assay, alpha2C; conditions: RSAT; for EC50: transfected NIH-3T3 cells, value outside brackets, read-out: Alpha 2C EC50 (potency); for Alpha 2C intrinsic activity (efficacy): ratio of maximal effect to that of standard full agonist brimonidine (UK14304), value in brackets
T3 construct: expressed in transfected cells; host or cells: NIH-3T3 cells
T3 sequence (P18825 1-462): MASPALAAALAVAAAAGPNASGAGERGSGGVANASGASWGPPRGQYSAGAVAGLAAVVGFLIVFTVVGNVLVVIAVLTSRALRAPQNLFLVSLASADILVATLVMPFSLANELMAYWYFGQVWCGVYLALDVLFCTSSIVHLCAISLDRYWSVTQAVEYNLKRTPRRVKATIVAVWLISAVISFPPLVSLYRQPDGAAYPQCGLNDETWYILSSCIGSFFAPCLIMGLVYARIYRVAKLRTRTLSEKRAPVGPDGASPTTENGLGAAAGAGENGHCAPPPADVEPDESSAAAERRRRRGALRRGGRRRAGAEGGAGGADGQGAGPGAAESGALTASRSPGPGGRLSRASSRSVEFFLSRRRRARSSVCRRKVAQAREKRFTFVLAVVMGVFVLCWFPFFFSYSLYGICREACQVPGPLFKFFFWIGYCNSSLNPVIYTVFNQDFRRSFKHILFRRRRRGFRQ
Experimental: as §1, §2, §3, §4

**Q.** Which results are given for `Cc1c(Cl)cccc1C(c1ccncc1)c1c[nH]cn1` (stereo not drawn) [4-((3-chloro-2-methylphenyl)(1H-imidazol-5-yl)methyl)pyridine]?
**A.** EC50 (alpha2A receptor): > 10000 nM; Alpha 2A intrinsic activity (efficacy) (alpha2A receptor): 0.11; EC50 (alpha2B receptor): 10.3 nM; Alpha 2B intrinsic activity (efficacy) (alpha2B receptor): 1.10; EC50 (alpha2C receptor): 83 nM; Alpha 2C intrinsic activity (efficacy) (alpha2C receptor): 0.46

**Q.** Which EC50 (alpha2A receptor) does the source give for `Fc1c(C(c2ccccn2)c2c[nH]cn2)cccc1C(F)(F)F` (stereo not drawn) [2-((2-fluoro-3-(trifluoromethyl)phenyl)(1H-imidazol-5-yl)methyl)pyridine] here?
**A.** > 10000 nM

**Q.** And the “Alpha 2A intrinsic activity (efficacy)” value (alpha2A receptor)?
**A.** 0.08

**Q.** What about the EC50 (alpha2B receptor) of the same compound?
**A.** 39 nM

**Q.** And the “Alpha 2B intrinsic activity (efficacy)” value (alpha2B receptor)?
**A.** 1.1

**Q.** And the EC50 (alpha2C receptor)?
**A.** 507 nM

**Q.** And the “Alpha 2C intrinsic activity (efficacy)” value (alpha2C receptor)?
**A.** 1.09
